This note sets out measurements from PMC10253817, “Design, Pharmacological Characterization, and Molecular Docking of Minimalist Peptidomimetic Antagonists of α4β1 Integrin” (International Journal of Molecular Sciences, 2023).

Assay type in all cases: cell-based
The target of one test is T1, α5β1 integrin (Homo sapiens, UniProt P05556+P08648).
T1 construct: K562 cells, mainly expressing α5β1, which shares a β1 subunit with the heterodimer α4β1; host or cells: K562 (PMA-treated)
Description: α5β1 integrin-mediated K562 cell adhesion to FN. The settings on record: K562 cell adhesion to FN (10 μg/mL). On the procedure: To this purpose, the ability of the best peptidomimetics to modulate cell adhesion mediated by integrins other than α4β1 was evaluated in HL60 cells, mainly expressing the leukocyte integrin αMβ2, and on K562 cells, mainly expressing α5β1, which shares a β1 subunit with the heterodimer α4β1. […] In contrast, 13 was a moderate promoter of cell adhesion mediated by αMβ2 integrin, behaving as an agonist. Regarding α5β1 integrin, none of the peptidomimetics employed were able to modulate K562 cell adhesion, thus being shown to be completely ineffective toward α5β1 integrin. The reference compound DS-70 was ineffective toward both αMβ2 and α5β1 integrins under the same experimental conditions (Table 3).
For adhesion assays mediated by α5β1 integrin, K562 cells were pre-treated with PMA (64.85 nM, Merck Life Science, Milan, Italy) for 48 h to enhance α5β1 integrin expression. 96-well plates were coated via passive adsorption with FN (10 μg/mL) overnight at 4 °C; then, the following day, plates were blocked by adding 100 μL/well of a blocking solution (1% BSA in PBS) and incubated for 1 h at 37 °C. K562 cells were counted and preincubated with various concentrations (10^−10–10^−4 M) of the peptides or with the vehicle for 30 min at RT. Then, K562 cells were plated (50,000 cells/well) and incubated at RT for 1 h. The wells were then washed three times with 1% BSA in PBS, and 50 μL of hexosaminidase substrate was added and incubated at RT for 1 h. After the addition of 100 μL of stopping solution (50 mM glycine and 5 mM EDTA, pH 10.4), plates were read at 405 nm in an EnSpire Multimode Plate Reader.
(§1) In both types of adhesion assay, the number of adherent cells was determined via comparison with a standard curve made in the same plate. Experiments were carried out in quadruplicate and repeated at least three times. Data analysis and EC50 or IC50 values were calculated using GraphPad Prism 9.5.1 (GraphPad Software, San Diego, CA, USA).
Cell culture. Jurkat E6.1 (expressing both α4β1 and αLβ2 integrin), K562 (expressing α5β1 integrin) and HL60 (expressing α Mβ2 integrin) cell lines were purchased from ATCC (Rockville, MD, USA); these cells were routinely cultured in RPMI-1640 (Life Technologies) supplemented with 1% glutamine and 10% fetal bovine serum (FBS). Cells were grown at 37 °C under 5% CO 2 humidified atmosphere. 40 h before the adhesion assays, K562 and HL60 cells were treated with 25 nM or 40 nM phorbol 12 -myristate 13-acetate (PMA; Sigma-Aldrich), respectively, to induced cell differentiation and to increased α5β1 or αMβ2 integrin expression on cell surface (Baiula et al., 2016).
Cell adhesion assays . Concentration-response curves, obtained from cell adhesion assays performed in […]
Figure S1. […]

For test [1], the target named is T2, α4β1 integrin (Homo sapiens, UniProt P05556+P13612).
T2 construct: Jurkat E6.1 cell line, which endogenously expresses α4β1 integrin; host or cells: Jurkat E6.1
As to the kind of experiment: HUTS-21 monoclonal antibody binding (α4β1 integrin conformation), flow cytometry. The settings on record: Jurkat E6.1 cells; compounds 1–100 nM; FN 10 µg/mL; versus vehicle. The source says:
Integrin functions are regulated by a number of conformational changes in the protein itself. […] Conformational changes can be evaluated by using conformationally sensitive antibodies which specifically recognize epitopes exposed only in a defined structural conformation. To better depict peptidomimetics–α4β1 integrin interactions, we employed PE-conjugated HUTS-21 mAb that recognizes an epitope mapped to the hybrid domain of the β1 subunit.
Conversely, antagonists 3, 8, and 13, although binding to α4β1 integrin as previously shown, were not able to induce any conformational rearrangement, showing very low binding of HUTS-21 mAb.
Flow cytometry analysis was performed as previously described, with the following modifications. Jurkat E6.1 cells were resuspended in 1% BSA in HBSS (50,000 cells/sample); then, FN (10 μg/mL) and two concentrations of the best peptidomimetics (100–1 nM) were added to the cells for 30 min. Thereafter, phycoerythrin (PE)-conjugated, conformational-sensitive HUTS-21 mAb (PE mouse anti-human CD29 antibody, Becton Dickinson Italia, Milan, Italy) (20 μL/sample) was added for 45 min at room temperature; after two washes, Jurkat E6.1 cells were suspended in PBS, and 10,000 cells/sample were acquired in a Guava®EasyCyte Flow Cytometer. The data are presented as the mean fluorescence intensity (MFI). Data were normalized with the relative fluorescence for nonspecific binding evaluated by exposing the cells to an isotype control mAb set to 0.

For test [2], the target named is T2, α4β1 integrin. As to the kind of experiment: α4β1 integrin-mediated Jurkat E6.1 cell adhesion to FN. The settings on record: Jurkat E6.1 cell adhesion to FN (10 μg/mL); antag. = reduced cell adhesion; mean ± SD. On the procedure:
To investigate the ability of the new peptides to modulate integrin-mediated cell adhesion, we employed cell adhesion assays using a Jurkat E6.1 cell line, which endogenously expresses α4β1 integrin and the natural ligand FN. […] On the contrary, ligands able to increase cell adhesion are defined as agonists.
The assays were performed as previously described. Briefly, regarding adhesion assays on Jurkat E6.1 or HL-60 cells, black 96-well plates (Corning Costar) were coated overnight at 4 °C with FN or Fg (10 μg/mL) or VCAM-1 (2 μg/mL) in order to investigate α4β1 integrin-mediated cell adhesion. To avoid any kind of unspecific binding, plates were incubated with 100 μL/well of blocking solution (1% BSA in HBSS) for 30 min at 37 °C. Cells were counted, stained with the CellTracker green CMFDA (12.5 μM, 30 min at 37 °C, Life Technologies Italia, Milan, Italy) and after three washes, were preincubated with increasing concentrations of new compounds (10^−10–10^−4 M) or with the vehicle (methanol) for 30 min at 37 °C.
Then, cells were plated (500,000/well) on coated wells and incubated for 30 min at 37 °C. Afterwards nonadherent cells were removed via washing with a blocking solution, and the remaining adhered cells were lysed with 0.5% Triton X-100 in PBS (30 min at 4 °C). Green fluorescence was measured (Ex485 nm/Em535 nm) using an EnSpire Multimode Plate Reader (PerkinElmer, Waltham, MA, USA).
as §1

Structures are written as SMILES.

T1 sequence (P08648 42-894 limits assumed): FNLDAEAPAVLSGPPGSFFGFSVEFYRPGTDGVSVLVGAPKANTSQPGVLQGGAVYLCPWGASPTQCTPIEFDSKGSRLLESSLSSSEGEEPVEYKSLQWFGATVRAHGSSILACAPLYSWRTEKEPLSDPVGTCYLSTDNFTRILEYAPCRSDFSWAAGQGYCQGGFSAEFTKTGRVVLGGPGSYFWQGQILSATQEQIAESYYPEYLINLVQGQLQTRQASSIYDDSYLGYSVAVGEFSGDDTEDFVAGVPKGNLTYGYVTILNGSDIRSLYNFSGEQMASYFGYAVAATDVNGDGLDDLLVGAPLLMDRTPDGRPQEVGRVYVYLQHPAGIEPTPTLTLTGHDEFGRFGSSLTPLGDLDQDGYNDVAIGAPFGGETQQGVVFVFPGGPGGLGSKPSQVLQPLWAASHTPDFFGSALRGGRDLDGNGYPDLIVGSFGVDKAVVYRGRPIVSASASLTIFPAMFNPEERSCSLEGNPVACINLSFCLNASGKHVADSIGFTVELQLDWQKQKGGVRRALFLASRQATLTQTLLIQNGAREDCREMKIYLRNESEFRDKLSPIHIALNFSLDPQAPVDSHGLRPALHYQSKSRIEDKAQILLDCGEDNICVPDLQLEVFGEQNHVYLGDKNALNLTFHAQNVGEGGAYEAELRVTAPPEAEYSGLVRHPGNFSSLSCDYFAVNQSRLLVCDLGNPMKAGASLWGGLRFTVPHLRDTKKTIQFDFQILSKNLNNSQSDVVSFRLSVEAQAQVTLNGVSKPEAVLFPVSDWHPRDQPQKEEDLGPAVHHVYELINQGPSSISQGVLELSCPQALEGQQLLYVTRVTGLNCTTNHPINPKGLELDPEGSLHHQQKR
T1 sequence (P08648 895-1049 partner limits assumed): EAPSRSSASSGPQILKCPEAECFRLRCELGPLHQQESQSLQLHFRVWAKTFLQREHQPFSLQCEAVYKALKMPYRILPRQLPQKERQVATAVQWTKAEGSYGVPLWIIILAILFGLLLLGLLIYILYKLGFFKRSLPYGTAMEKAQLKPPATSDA
T1 sequence (P05556 21-798): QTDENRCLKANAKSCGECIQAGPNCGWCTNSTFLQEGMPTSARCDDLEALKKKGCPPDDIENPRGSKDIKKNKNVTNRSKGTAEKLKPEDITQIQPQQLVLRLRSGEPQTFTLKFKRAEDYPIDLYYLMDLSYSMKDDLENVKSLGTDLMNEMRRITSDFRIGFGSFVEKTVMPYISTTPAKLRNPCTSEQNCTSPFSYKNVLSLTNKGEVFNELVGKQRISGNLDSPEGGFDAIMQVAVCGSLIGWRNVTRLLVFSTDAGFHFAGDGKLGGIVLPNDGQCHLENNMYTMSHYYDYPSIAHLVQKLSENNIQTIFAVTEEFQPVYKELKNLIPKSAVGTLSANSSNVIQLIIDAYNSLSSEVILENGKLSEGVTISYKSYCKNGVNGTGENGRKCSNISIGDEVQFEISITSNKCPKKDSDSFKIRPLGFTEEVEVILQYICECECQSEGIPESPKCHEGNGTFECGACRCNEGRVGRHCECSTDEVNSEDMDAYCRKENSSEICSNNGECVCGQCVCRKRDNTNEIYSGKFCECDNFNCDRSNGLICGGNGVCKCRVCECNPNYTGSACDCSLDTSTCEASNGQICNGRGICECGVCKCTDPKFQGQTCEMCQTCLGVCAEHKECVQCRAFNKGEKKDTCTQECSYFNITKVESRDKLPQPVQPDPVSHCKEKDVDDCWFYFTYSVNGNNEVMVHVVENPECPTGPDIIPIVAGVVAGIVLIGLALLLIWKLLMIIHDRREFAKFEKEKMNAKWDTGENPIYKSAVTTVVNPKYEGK
T2 sequence (P13612 34-1032): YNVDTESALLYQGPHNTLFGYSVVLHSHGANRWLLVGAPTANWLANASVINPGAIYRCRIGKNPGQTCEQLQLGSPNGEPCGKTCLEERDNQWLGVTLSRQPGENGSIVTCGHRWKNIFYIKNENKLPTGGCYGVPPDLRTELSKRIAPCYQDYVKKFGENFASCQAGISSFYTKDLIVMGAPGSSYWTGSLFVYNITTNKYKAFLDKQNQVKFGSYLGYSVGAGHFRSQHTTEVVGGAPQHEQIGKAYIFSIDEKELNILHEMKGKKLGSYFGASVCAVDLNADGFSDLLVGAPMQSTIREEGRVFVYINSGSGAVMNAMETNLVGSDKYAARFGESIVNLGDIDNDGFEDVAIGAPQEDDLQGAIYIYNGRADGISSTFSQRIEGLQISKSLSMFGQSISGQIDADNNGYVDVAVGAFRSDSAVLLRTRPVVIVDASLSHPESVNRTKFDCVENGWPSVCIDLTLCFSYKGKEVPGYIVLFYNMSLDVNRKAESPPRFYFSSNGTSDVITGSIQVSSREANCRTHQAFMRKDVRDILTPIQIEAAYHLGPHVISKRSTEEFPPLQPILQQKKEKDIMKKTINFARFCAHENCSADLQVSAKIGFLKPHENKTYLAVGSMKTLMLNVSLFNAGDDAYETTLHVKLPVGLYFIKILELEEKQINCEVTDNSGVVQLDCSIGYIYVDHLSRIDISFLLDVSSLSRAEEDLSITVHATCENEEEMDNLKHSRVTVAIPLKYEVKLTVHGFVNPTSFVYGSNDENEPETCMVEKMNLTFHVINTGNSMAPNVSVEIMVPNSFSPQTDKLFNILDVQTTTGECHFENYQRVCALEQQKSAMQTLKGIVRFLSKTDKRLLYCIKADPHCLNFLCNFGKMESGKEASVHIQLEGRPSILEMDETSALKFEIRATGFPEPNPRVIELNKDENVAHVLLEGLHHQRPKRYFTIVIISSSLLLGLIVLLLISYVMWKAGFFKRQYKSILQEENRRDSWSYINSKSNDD
T2 sequence (P05556 21-798): as the sequence (P05556 21-798) above

At α5β1 integrin, `CC(=O)N[C@@H](CNC(=O)Cc1ccc(NC(=O)Nc2ccccc2C)cc1)C(=O)NCC(=O)O` [compound 3] yielded an IC50 above 5 µM. Also, the “binding of HUTS-21 mAb (MFI)” value on α4β1 integrin [1] is “not able to increase the binding of HUTS-21 mAb”.

As to `CCCNC(=O)[C@@H](CC(=O)NCC(=O)O)NC(=O)Cc1ccc(NC(=O)Nc2ccccc2C)cc1` [compound 8], on α5β1 integrin, the IC50 is above 5 µM. The “binding of HUTS-21 mAb (MFI)” value on α4β1 integrin [1] was “not able to increase the binding of HUTS-21 mAb”.

In the case of `Cc1ccccc1NC(=O)Nc1ccc(CNC(=O)C[C@@H](C)NC(=O)CC(=O)O)cc1` [compound 13], the IC50 is above 5 µM against α5β1 integrin and 0.416 µM at α4β1 integrin [2]. In addition, on α4β1 integrin [1], the “binding of HUTS-21 mAb (MFI)” value was “not able to increase the binding of HUTS-21 mAb”.

Broadly, the IC50 is the concentration needed to halve the response being measured.
